From publication PMC9737648, “Novel Approaches for the Solid-Phase Synthesis of Dihydroquinazoline-2(1H)-One Derivatives and Biological Evaluation as Potential Anticancer Agents” (Molecules, 2022)

Tests used:
[1] = tested on: human liver cancer cells (HepG-2); experiment: MTT cytotoxicity assay, HepG-2; assay type: cell-based; settings: Homo sapiens, HepG2, 72 h, 72-h incubation
Description: (§1) The above cells were tested for cytotoxicity to identify the most promising antitumor drug among the synthesized quinazolinone derivatives.
(§2) An MTT assay was used to evaluate the in vitro cytotoxicity of the new compounds. The MTT assay depends on the reduction of soluble 3-([…])-2,5-diphenyl-tetrazolium bromide (MTT) into a blue purple formazan product, mainly by mitochondrial reductase activity inside living cells. […] The cells were suspended in growth medium and plated in 96-well culture plates at a density of 4 × 10^4 cells/well and incubated at 37 °C in a 5% CO2 incubator. […] Each experiment was performed at least 3 times.

[2] = tested on: ovarian cancer cells (A2780); experiment: MTT cytotoxicity assay, A2780; assay type: cell-based, human; settings: Homo sapiens, A2780, 72 h, 72-h incubation
Description: as §1, §2

[3] = tested on: breast cancer cells (MDA-MB-231); experiment: MTT cytotoxicity assay, MDA-MB-231; assay type: cell-based, human; settings: Homo sapiens, 72-h incubation
Description: as §1, §2

[4] = DPPH• free radical scavenging assay; settings: concentration required to scavenge 50% of the DPPH; 30 min in the dark
Description: The quinazolinone derivatives were evaluated for their free radical scavenging activity at 320, 160, 80, 40, 20, and 10 µM concentration using the DPPH radical method, with ascorbic acid as the positive control (Table 3).
The antiradical activity of the compounds was estimated according to a slight modification of the procedure reported by Morales and Jimenez-Perez. […] Each sample (100 μL) at a different concentration was added to a freshly prepared solution of 1,1-diphenyl-2-picrylhydrazyl (DPPH•) radical (0.2 mM, 100 μL). The mixtures (200 μL) were placed in a 96-well microplate, shaken vigorously, and then left to stand for 30 min in the dark. Then, absorbance was immediately measured at a wavelength of 517 nm. Vc was used as the standard. The antiradical activity for each compound was determined in the Vc equivalent antioxidant capacity. The DPPH• solution in the presence of ethanol and in the absence of compounds was tested and used as a negative control. […] In all experiments, the samples were analyzed in triplicate, and activity for each compound was presented as the mean value ± SEM and used for evaluation of structure–activity relationships. […] Absorbance was taken at 520 nm using a microplate reader (Tecan, Männedorf, Switzerland).

[5] = tested on: human hepatic stellate cells (LX-2); experiment: MTT cytotoxicity assay, LX-2 normal control; assay type: cell-based; settings: Homo sapiens, 72-h incubation
Description: as §1, §2

- IC50 [4]: > 1000 µM
Structure (SMILES): CN1C(=O)N(S(=O)(=O)c2ccccc2F)C(CC(N)=O)c2cc(NS(=O)(=O)c3ccccc3F)ccc21 (centres unmarked) [CA7-b′, 2-{6-[(2-fluorophenyl)sulfonamido]-3-[(2-fluorophenyl)sulfonyl]-1-methyl-2-oxo-1,2,3,4-tetrahydroquinazolin-4-yl}acetamide]
- IC50 [1]: 95.3 ± 5.47 µM
- IC50 [2]: > 100 µM
- IC50 [3]: > 100 µM
- IC50 [5]: > 100 µM
